Data as given in ChEMBL document CHEMBL5678818, “Discovery of potent SOS1 inhibitors that block RAS activation via disruption of the RAS-SOS1 interaction” (Proc Natl Acad Sci U S A, 2019).

Experiments:
[1] = target: Calcium/calmodulin-dependent protein kinase type II subunit delta (Homo sapiens) (UniProt Q13557); assay: Inhibition of CAMK2D (unknown origin) assessed as residual activity at 1000 nM by KINOMEscan analysis relative to control
[2] = target: Mitogen-activated protein kinase 6 (Homo sapiens) (UniProt Q16659); assay: Inhibition of ERK3 (unknown origin) assessed as residual activity at 1000 nM by KINOMEscan analysis relative to control
Chain of Mitogen-activated protein kinase 6 (Homo sapiens) (Q16659 whole entry): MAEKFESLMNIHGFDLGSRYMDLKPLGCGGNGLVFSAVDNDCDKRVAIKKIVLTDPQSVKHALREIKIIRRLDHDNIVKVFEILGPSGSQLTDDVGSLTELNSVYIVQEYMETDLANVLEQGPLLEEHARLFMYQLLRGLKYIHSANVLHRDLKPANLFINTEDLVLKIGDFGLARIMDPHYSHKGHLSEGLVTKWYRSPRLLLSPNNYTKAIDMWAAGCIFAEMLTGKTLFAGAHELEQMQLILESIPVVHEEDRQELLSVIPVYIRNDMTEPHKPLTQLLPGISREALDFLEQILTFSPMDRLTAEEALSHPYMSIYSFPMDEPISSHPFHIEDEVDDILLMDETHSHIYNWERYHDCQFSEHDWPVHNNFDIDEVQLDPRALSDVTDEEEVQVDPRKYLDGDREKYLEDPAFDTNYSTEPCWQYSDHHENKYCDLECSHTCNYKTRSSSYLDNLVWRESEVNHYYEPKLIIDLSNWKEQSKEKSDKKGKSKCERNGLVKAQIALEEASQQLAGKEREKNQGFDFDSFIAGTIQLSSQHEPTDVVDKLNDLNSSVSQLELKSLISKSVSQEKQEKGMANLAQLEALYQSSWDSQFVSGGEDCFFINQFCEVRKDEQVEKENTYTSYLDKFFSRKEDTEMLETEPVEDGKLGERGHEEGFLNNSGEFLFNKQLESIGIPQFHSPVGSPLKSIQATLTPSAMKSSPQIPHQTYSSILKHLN

[3] = target: Proto-oncogene tyrosine-protein kinase ROS (Homo sapiens) (UniProt P08922); assay: Inhibition of ROS1 (unknown origin) assessed as residual activity at 1000 nM by KINOMEscan analysis relative to control
[4] = target: T1, Membrane-associated tyrosine- and threonine-specific cdc2-inhibitory kinase (Homo sapiens) (UniProt Q99640); assay: Inhibition of PKMYT1 (unknown origin) assessed as residual activity at 1000 nM by KINOMEscan analysis relative to control
T1 sequence (whole entry): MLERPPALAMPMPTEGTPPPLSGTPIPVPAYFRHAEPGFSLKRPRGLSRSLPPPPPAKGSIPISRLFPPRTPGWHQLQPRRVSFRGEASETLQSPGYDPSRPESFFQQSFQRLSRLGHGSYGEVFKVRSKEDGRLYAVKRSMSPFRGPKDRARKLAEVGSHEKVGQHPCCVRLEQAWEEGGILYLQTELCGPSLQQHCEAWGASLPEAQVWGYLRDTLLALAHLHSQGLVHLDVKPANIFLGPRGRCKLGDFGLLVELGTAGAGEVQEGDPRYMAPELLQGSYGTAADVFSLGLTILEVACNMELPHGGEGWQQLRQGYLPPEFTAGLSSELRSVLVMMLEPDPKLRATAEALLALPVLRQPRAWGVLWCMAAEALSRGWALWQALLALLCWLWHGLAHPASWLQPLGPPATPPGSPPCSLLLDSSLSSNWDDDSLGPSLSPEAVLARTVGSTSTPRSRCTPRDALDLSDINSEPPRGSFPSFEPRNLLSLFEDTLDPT

[5] = system: Phosphatidylinositol 4,5-bisphosphate 3-kinase catalytic subunit alpha isoform (Homo sapiens), P42336 [H1047L]; assay: Inhibition of PIK3CA H1047L mutant (unknown origin) assessed as residual activity at 1000 nM by KINOMEscan analysis relative to control
Chain of Phosphatidylinositol 4,5-bisphosphate 3-kinase catalytic subunit alpha isoform (Homo sapiens), P42336 [H1047L] (P42336 whole entry H1047L, canonical isoform): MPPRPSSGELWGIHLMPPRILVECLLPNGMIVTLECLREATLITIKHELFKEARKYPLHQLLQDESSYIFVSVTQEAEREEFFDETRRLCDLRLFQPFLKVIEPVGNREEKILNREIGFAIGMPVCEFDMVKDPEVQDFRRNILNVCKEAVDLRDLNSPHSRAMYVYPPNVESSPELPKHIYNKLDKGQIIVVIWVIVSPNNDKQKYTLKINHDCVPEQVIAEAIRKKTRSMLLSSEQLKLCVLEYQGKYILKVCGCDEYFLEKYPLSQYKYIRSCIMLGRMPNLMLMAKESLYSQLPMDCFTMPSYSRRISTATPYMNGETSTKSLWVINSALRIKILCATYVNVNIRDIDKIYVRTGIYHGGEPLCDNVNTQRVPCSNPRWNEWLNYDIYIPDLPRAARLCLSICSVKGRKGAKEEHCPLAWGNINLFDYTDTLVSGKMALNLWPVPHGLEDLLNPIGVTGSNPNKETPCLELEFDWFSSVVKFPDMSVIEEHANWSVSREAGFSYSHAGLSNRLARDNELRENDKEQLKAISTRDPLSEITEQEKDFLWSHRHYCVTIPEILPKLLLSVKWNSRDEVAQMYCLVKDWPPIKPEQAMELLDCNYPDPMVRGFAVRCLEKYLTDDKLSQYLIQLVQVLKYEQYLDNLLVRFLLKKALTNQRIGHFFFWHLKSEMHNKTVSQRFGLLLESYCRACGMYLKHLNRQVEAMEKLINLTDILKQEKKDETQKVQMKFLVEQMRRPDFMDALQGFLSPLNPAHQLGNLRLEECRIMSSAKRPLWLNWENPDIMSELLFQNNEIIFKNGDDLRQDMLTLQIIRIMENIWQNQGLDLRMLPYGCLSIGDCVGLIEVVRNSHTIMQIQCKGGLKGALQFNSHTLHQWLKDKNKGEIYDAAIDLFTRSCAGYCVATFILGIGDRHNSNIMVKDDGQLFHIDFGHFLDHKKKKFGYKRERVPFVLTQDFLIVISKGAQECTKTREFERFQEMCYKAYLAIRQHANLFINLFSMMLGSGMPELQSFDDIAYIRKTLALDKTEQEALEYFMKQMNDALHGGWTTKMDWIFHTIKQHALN

[6] = target: T2, Serine/threonine-protein kinase Sgk3 (Homo sapiens) (UniProt Q96BR1); assay: Inhibition of SGK3 (unknown origin) assessed as residual activity at 1000 nM by KINOMEscan analysis relative to control
T2 sequence (whole entry): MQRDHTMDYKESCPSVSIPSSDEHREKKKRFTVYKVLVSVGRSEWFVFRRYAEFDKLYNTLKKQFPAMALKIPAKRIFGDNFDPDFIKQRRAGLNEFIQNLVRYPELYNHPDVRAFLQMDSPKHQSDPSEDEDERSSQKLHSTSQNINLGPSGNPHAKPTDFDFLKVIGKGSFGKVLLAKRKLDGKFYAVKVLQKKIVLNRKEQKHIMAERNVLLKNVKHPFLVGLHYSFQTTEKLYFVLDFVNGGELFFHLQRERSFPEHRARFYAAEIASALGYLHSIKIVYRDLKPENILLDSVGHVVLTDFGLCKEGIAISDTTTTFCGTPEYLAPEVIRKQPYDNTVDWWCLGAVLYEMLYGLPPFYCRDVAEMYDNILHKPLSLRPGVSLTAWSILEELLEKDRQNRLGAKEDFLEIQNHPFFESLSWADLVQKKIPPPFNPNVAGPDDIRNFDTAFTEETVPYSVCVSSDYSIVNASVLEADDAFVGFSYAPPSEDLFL

[7] = target: Serine/threonine-protein kinase 33 (Homo sapiens) (UniProt Q9BYT3); assay: Inhibition of STK33 (unknown origin) assessed as residual activity at 1000 nM by KINOMEscan analysis relative to control
Chain of Serine/threonine-protein kinase 33 (Homo sapiens) (Q9BYT3 whole entry, looked up): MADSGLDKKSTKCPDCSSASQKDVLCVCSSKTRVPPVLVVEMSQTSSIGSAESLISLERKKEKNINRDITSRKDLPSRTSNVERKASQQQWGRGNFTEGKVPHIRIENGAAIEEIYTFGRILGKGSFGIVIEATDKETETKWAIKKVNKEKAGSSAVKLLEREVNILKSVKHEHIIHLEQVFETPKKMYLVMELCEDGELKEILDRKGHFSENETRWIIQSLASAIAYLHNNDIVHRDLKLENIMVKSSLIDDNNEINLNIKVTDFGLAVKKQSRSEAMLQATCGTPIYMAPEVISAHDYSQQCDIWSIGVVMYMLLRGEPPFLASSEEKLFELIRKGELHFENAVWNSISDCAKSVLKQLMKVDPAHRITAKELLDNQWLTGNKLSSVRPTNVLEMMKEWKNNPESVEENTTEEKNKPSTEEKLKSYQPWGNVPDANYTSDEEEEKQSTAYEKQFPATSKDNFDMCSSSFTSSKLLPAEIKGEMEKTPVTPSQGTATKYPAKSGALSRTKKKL

[8] = target: Leukocyte tyrosine kinase receptor (Homo sapiens) (UniProt P29376); assay: Inhibition of LTK (unknown origin) assessed as residual activity at 1000 nM by KINOMEscan analysis relative to control
Chain of Leukocyte tyrosine kinase receptor (Homo sapiens) (P29376 whole entry): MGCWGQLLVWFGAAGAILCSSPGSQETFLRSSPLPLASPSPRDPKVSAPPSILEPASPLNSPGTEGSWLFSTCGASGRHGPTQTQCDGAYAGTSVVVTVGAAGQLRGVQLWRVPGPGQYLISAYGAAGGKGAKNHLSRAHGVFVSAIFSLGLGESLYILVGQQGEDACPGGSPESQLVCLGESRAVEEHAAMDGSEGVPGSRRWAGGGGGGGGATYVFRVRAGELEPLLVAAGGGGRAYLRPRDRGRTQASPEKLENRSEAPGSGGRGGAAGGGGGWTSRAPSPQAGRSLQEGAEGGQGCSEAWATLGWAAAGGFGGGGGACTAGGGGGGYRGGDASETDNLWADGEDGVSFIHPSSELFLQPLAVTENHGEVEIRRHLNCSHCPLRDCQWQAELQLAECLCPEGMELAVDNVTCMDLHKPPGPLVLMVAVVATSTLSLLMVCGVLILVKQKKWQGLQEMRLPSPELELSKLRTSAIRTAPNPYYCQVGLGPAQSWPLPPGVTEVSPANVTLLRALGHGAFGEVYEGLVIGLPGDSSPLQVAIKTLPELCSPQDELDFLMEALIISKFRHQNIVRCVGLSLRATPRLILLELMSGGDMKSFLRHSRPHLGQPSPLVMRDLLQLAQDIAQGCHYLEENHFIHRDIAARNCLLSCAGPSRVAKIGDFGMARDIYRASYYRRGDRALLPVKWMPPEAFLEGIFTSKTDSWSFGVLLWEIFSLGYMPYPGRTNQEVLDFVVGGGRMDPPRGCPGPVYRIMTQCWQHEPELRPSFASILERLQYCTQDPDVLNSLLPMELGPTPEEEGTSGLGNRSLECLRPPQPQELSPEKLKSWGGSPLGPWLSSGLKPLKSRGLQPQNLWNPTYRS

[9] = target: Tyrosine-protein kinase Tec (Homo sapiens) (UniProt P42680); assay: Inhibition of TEC (unknown origin) assessed as residual activity at 1000 nM by KINOMEscan analysis relative to control
Chain of Tyrosine-protein kinase Tec (Homo sapiens) (P42680 whole entry, looked up): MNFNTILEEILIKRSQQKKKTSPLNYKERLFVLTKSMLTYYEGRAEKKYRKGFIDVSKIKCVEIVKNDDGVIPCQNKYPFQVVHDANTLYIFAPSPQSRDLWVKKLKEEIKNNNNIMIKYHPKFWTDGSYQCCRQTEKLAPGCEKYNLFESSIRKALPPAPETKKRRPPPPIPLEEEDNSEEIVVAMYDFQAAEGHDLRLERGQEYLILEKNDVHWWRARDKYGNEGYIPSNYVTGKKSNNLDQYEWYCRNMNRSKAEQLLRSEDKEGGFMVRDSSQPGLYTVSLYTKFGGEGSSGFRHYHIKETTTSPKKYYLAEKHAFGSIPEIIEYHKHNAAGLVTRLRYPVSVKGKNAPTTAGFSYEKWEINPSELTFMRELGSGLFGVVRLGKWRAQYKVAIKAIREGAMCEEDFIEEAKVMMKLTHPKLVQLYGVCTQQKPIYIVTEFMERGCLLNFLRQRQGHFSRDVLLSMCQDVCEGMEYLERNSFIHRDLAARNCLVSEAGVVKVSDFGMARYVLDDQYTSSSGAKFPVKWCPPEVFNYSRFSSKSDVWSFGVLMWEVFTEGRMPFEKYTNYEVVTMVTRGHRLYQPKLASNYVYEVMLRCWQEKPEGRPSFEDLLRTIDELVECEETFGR

[10] = target: T3, Phosphatidylinositol 5-phosphate 4-kinase type-2 gamma (Homo sapiens) (UniProt Q8TBX8); assay: Inhibition of PIP5K2C (unknown origin) assessed as residual activity at 1000 nM by KINOMEscan analysis relative to control
T3 sequence (whole entry): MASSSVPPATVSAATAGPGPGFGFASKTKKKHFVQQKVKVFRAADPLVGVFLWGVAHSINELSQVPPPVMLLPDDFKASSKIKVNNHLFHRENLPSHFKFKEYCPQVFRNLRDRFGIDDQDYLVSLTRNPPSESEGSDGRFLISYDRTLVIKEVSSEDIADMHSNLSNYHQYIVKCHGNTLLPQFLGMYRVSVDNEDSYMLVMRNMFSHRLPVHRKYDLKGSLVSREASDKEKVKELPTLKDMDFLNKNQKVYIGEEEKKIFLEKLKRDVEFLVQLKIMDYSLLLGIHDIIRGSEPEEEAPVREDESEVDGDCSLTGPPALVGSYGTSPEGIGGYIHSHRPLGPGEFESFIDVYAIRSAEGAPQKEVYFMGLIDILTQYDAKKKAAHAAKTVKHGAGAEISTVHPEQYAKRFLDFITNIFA

Chain of Calcium/calmodulin-dependent protein kinase type II subunit delta (Homo sapiens) (Q13557 whole entry): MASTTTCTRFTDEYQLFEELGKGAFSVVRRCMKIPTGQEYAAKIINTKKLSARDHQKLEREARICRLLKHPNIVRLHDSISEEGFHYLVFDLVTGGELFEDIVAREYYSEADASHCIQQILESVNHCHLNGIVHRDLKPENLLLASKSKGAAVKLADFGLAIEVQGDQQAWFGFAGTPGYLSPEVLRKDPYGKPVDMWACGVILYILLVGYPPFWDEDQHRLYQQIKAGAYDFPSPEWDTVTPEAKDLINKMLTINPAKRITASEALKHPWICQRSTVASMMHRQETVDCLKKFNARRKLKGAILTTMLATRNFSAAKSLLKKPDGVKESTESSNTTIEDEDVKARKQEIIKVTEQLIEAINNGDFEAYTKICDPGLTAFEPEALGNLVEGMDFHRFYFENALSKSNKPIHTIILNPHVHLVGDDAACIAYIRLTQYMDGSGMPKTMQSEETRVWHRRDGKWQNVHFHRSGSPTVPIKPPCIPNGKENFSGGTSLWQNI

With COc1cc2nc(C)nc(N[C@H](C)c3cccc(-c4cn[nH]c4)c3)c2cc1OC as the molecule, how does the Activity [1] read?
Its Activity is 100%.

And the Activity [2]?
Its Activity is 100%.

What about the Activity [3] of the same molecule?
The Activity was 100%.

And the Activity [4]?
The Activity was 53%.

What about the Activity [5] of the same molecule?
Its Activity is 96%.

What about the Activity [6] of the same molecule?
The Activity was 90%.

And the Activity [7]?
The Activity was 100%.

And the Activity [8]?
The Activity was 100%.

And the Activity [9]?
The Activity was 85%.

What about the Activity [10] of the same molecule?
The Activity was 69%.

For COc1cc2ncnc(N[C@H](C)c3cccc4ccccc34)c2cc1OC, which Activity [1] is on record?
The Activity was 100%.

What about the Activity [2] of the same molecule?
The Activity was 94%.

And the Activity [3]?
Its Activity is 90%.

And the Activity [4]?
Its Activity is 100%.

And the Activity [5]?
The Activity was 92%.

And the Activity [6]?
The Activity was 100%.

What about the Activity [7] of the same molecule?
The Activity was 68%.

And the Activity [8]?
The Activity was 97%.

What about the Activity [9] of the same molecule?
The Activity was 98%.

What about the Activity [10] of the same molecule?
The Activity was 80%.
